pIC50: −log10 of the molar value.
Assays:
[1] = Stability in human liver microsomes; type: in vitro ADME; conditions: human, liver microsomes, pH 7.4, Human; 0.5 mg/mL microsomal protein, 1.00 μM compound, NADPH; read-out: Half life T1/2, human liver microsomes
Description: (§1) Test Example 3: Test of Stability of Compounds in Liver Microsome
(§2) Test purpose: To determine the stability of some of the compounds of the present disclosure in mouse, dog and human liver microsomes by LC-MS/MS method.
(§3) Test materials: The test drugs were in-house prepared example compounds of the present disclosure; the positive reference compound SNDX-5613 was prepared by the method of Example 253 in patent WO2017214367; the control compound 1 was prepared by the method of Example 64 in WO2017214367; liver microsomes were purchased from CORNING.
(§4) The total volume of each incubation system was approximately 45 μL, and the medium was 100 mM phosphate buffer (PBS, pH 7.4), including liver microsomal protein at a final concentration of 0.5 mg/mL, 1.00 μM compound and 2.00 mM NADPH, and the organic phase content was <1%. Incubation was performed in a 37° C. incubator, and 135 μL of ice-cold acetonitrile was added after 0, 5, 15, 30 and 60 min of reaction to terminate the reaction. The positive control group was incubated with 1.00 μM Ketanserin, 0.5 mg/mL liver microsomal protein and 2.00 mM NADPH in a 37° C. incubator for 0, 5, 15, 30 and 60 min respectively, and then 135 μL of ice-cold acetonitrile was added to terminate the reaction. The 96-well plates were shaken at 600 rpm for 10 min and then centrifuged at 4700 rpm at 4° C. for 15 min. 80 μL of supernatant was mixed with 320 μL of pure water, and the remaining amount of the compound was detected by LC-MS/MS method. The in vitro half life (T½) and intrinsic clearance (CLint) were calculated according to the following formula:
(§5) Intrinsic clearance (Clint)=(0.693/T1/2)×(1/liver microsome concentration)×conversion factor. k is the linear regression slope of the remaining percentage of the ln compound-incubation time.

[2] = Stability in mouse liver microsomes; type: in vitro ADME; conditions: liver microsomes, pH 7.4, 0.5 mg/mL microsomal protein, 1.00 μM compound, NADPH, read-out: Half life T1/2, mouse liver microsomes
Description: as §1, §2, §3, §4, §5

MOLM-13 = assay: Cell proliferation inhibition (CellTiter-Glo), MOLM-13; type: cell-based; conditions: Homo sapiens, MOLM-13, 168 h, MOLM-13 cells
Description: Test Example 2: Test of the Inhibitory Ability of Menin-MLL Interaction Inhibitors on Cell Proliferation
The inhibitory ability of the compounds of the present disclosure on the proliferation of tumor cell lines (including cell lines containing MLL fusion protein such as MV4-11, MOLM-13, THP-1 and NOMO-1, control cell lines without MLL fusion protein such as HL-60, K562 and MOLM-16, and cell lines containing NPM1 mutation such as OCI-AML3) was evaluated by using the cell viability analysis method. The cells were plated in 96-well plates at a certain concentration (e.g., 5,000-20,000 cells/well), and then an equal volume of culture medium containing 2 times the final concentration of the test compound (the final concentration ranging 10 from 1 nM to 10 μM) was added. The plates were placed in an incubator and cultured at 37° C. and 5% CO2 for 72-168 h. Before the test, an equal volume of CellTiter-Glo® Luminescent reagent was added, and the plate was incubated at room temperature for 10 min before detection using an ELISA reader (BMG LABTECH). The data were analyzed using GraphPad Prism software to obtain the IC50 value and compound fitting curve. The control compound 1 was prepared by referring to the method of Example 64 in WO2017214367.

OCI-AML3 = assay: Cell proliferation inhibition (CellTiter-Glo), OCI-AML3 (NPM1 mutation); type: cell-based; conditions: Homo sapiens, OCI-AML-3, 168 h, OCI-AML3 cells
How it was run: (§6)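 CellTiter-Glo luminescence read-out (10 min RT) after 72-168 h culture at 37° C, 5% CO2; cells plated 5,000-20,000/well; compound final 1 nM-10 μM; IC50 from curve fit.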

[3] = Stability in dog liver microsomes; type: in vitro ADME; conditions: dog, liver microsomes, pH 7.4, Dog; 0.5 mg/mL microsomal protein, 1.00 μM compound, NADPH; read-out: Half life T1/2, dog liver microsomes
Description: as §1, §2, §3, §4, §5

MV4-11 = assay: Cell proliferation inhibition (CellTiter-Glo), MV4-11; type: cell-based; conditions: Homo sapiens, MV4-11, 72 h, MV4-11 cells
How it was run: as §6

[4] = molecular target: Menin/MLL-4-43 peptide interaction (Homo sapiens (Human), UniProt O00255); assay: Menin-MLL interaction inhibitory activity assay (fluorescence polarization competition); type: binding; conditions: FITC-MLL4-43-peptide, Menin recombinant protein
How it was run: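 Menin (8 nM solution) was preincubated 15 min with compound, then FITC-MLL4-43 peptide (10 nM solution) was added and shaken for 60 min at 25 °C. The buffer was 50 mM Tris pH 7.5, 50 mM NaCl, 1 mM DTT. IC50 was derived from fluorescence polarization read at 485/520 nm.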

[5] = molecular target: hERG potassium ion channel (Homo sapiens (Human), UniProt Q12809); assay: hERG potassium channel effect test (manual patch clamp, HEK293 cells overexpressing hERG); type: cell-based
Description: Test Example 6: hERG Potassium Channel Effect Test
The hERG inhibition test was performed on some of the example compounds of the present disclosure using the manual electrophysiological patch clamp method. The cell line was derived from HEK293 cells that overexpressed hERG potassium ion channels. The specific experimental protocol was developed by PharmaCore Labs with reference to literature published in peer-reviewed journals and was performed by PharmaCore Labs in accordance with its standard experimental operating procedures. The highest test concentration was 30 μM.

Menin/MLL-4-43 peptide interaction, sequence (O00255 whole entry, species assumed): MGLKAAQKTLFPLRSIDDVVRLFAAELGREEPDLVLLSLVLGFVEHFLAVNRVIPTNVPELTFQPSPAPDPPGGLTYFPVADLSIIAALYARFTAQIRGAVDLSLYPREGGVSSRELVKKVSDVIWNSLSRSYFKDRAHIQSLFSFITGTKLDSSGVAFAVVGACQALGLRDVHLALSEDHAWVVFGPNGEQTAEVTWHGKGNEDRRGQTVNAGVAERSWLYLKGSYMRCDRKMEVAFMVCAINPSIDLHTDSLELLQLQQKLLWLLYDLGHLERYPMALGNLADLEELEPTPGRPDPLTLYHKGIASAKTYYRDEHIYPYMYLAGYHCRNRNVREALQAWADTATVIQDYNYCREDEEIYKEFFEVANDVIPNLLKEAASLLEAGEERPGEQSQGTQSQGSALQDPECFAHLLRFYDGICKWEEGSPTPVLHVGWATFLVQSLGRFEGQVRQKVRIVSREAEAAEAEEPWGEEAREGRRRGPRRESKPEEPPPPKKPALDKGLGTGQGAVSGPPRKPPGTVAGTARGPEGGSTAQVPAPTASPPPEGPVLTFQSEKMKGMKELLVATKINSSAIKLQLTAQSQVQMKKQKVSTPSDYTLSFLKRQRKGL
hERG potassium ion channel, sequence (Q12809 whole entry): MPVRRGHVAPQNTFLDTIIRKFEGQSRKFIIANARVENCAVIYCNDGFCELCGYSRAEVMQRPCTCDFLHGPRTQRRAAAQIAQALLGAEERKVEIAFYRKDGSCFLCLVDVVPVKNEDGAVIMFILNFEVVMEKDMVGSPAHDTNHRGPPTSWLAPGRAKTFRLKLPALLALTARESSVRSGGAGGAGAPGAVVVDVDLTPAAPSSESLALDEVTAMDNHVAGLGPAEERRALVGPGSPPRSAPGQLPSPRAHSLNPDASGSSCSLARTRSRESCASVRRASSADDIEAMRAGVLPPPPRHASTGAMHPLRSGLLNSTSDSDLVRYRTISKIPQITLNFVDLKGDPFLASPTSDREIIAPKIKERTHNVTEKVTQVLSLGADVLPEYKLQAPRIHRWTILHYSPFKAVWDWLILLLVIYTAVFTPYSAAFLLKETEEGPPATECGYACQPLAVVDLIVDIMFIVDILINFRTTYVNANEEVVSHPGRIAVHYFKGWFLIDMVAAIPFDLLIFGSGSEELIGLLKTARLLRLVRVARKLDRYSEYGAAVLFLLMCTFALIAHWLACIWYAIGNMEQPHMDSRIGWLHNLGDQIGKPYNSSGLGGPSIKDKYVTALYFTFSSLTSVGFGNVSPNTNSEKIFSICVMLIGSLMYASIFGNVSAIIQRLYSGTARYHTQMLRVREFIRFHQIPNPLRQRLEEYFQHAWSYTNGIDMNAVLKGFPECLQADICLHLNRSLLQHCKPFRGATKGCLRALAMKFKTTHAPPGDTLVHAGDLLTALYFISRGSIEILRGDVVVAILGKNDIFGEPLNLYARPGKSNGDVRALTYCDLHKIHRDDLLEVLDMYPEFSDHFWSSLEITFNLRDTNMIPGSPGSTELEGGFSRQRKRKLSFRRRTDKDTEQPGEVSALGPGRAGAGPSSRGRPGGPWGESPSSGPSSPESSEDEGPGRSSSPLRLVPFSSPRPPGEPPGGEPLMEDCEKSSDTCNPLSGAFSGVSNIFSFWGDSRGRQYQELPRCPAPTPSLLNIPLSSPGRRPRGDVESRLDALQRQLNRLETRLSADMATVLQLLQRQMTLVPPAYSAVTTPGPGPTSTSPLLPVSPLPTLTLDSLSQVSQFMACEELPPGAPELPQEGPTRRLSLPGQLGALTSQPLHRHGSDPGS

CC(C)N(C(=O)c1cc(F)ccc1Oc1nncnc1N1CC2(CCN(C[C@H]3CC[C@@]4(CCC(=O)N4)CC3)CC2)C1)C(C)C [Example 8]
half-life at 1 μM [1]: 0.786 h
half-life at 1 μM [2]: 1.11 h
GI50 (MOLM-13): 96.4 nM
GI50 (OCI-AML3): 142 nM
half-life at 1 μM [3]: 1.56 h
GI50 (MV4-11): 197 nM
pIC50 [4]: 7.17

CCN(C(=O)c1cc(F)ccc1Oc1nncnc1N1CC2(CCN(C[C@H]3CC[C@]4(CC3)CC(C)(C)C(=O)N4)CC2)C1)C(C)C [Example 26]
half-life at 1 μM [1]: 0.618 h
half-life at 1 μM [2]: 1.33 h
GI50 (MOLM-13): 162 nM
GI50 (OCI-AML3): 94 nM
half-life at 1 μM [3]: 1.04 h
GI50 (MV4-11): 19.2 nM
pIC50 [4]: 8.13

CCN(C(=O)c1cc(F)ccc1Oc1nncnc1N1CC2(CCN(C[C@H]3CC[C@]4(CC3)C[C@@H](COC)C(=O)N4)CC2)C1)C(C)C [Example 37-2]
half-life at 1 μM [1]: 1.09 h
half-life at 1 μM [2]: > 2 h
GI50 (MOLM-13): 46.5 nM
GI50 (OCI-AML3): 40.9 nM
half-life at 1 μM [3]: 1.5 h
GI50 (MV4-11): 15.2 nM
pIC50 [4]: 8.48

CC1C[C@]2(CC[C@@H](CN3CCC4(CC3)CN(c3ncnnc3Oc3ccc(F)cc3C(=O)N(C(C)C)C(C)C)C4)CC2)NC1=O (stereo partly shown) [Example 41-1]
inhibition at 30 μM ([5]; human, HEK293 cells overexpressing hERG potassium ion channels, 30 μm, read-out: Average inhibition rate of hERG current at the highest compound tested concentration): 13.2%
pIC50 ([5]; manual patch clamp, highest test concentration 30 μM): < 4.52
GI50 (MOLM-13): 52.7 nM
GI50 (OCI-AML3): 64.1 nM
GI50 (MV4-11): 25.5 nM
pIC50 [4]: 7.97

CCN(C(=O)c1cc(F)ccc1Oc1nncnc1N1CC2(CCN(C[C@H]3CC[C@]4(CC3)CC3(CCOCC3)C(=O)N4)CC2)C1)C(C)C [Example 45]
half-life at 1 μM [1]: 0.618 h
half-life at 1 μM [2]: > 2 h
GI50 (MOLM-13): 54.1 nM
GI50 (OCI-AML3): 48.4 nM
half-life at 1 μM [3]: 1.53 h
GI50 (MV4-11): 12.7 nM
pIC50 [4]: 8.60

Source: patent publication US20250074910A1, “MENIN INHIBITOR AND USE THEREOF” (HITGEN INC., priority 2021, published 2025)
